Source: PubChem BioAssay (NCI)
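Exposure lasted 48 hours, with cells grown in 96-well plates and compounds tested at five concentrations. TGI: concentration producing complete growth inhibition.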

Tests used:
Experiment in all cases: DTP human tumour cell line panel, 48 h
[1] = tested on: NCI-H23 lung
[2] = tested on: RXF 393 renal
[3] = tested on: DU-145 prostate
[4] = tested on: SF-295 CNS
[5] = tested on: COLO 205 colon
[6] = tested on: 786-0 renal
[7] = tested on: BT-549 breast
[8] = tested on: HS 578T breast
[9] = tested on: HT29 colon
[10] = tested on: CCRF-CEM leukemia
[11] = tested on: RPMI-8226 leukemia
[12] = tested on: UACC-62 melanoma
[13] = tested on: PC-3 prostate
[14] = tested on: SK-MEL-2 melanoma
[15] = tested on: EKVX NSCLC
[16] = tested on: SK-OV-3 ovarian
[17] = tested on: ACHN renal
[18] = tested on: U251 CNS
[19] = tested on: OVCAR-8 ovarian
[20] = tested on: UO-31 renal
[21] = tested on: SK-MEL-28 melanoma
[22] = tested on: A549 NSCLC
[23] = tested on: HOP-92 NSCLC
[24] = tested on: TK-10 renal
[25] = tested on: KM12 colon
[26] = tested on: K-562 leukemia
[27] = tested on: OVCAR-3 ovarian
[28] = tested on: NCI-H460 lung
[29] = tested on: HCC-2998 colon
[30] = tested on: SF-539 CNS
[31] = tested on: MDA-N
[32] = tested on: HCT-15 colon
[33] = tested on: NCI-H226 lung
[34] = tested on: SW-620 colon
[35] = tested on: LOX IMVI melanoma
[36] = tested on: SR leukemia
[37] = tested on: M14 melanoma
[38] = tested on: MCF7 breast
[39] = tested on: T-47D breast
[40] = tested on: MDA-MB-435
[41] = tested on: SF-268 CNS
[42] = tested on: HCT-116 colon
[43] = tested on: MDA-MB-231 breast
[44] = tested on: HOP-62 NSCLC
[45] = tested on: OVCAR-5 ovarian
[46] = tested on: MOLT-4 leukemia
[47] = tested on: A498 renal
[48] = tested on: SN12C renal
[49] = tested on: SNB-75 CNS
[50] = tested on: NCI-H522 lung
[51] = tested on: IGROV1 ovarian
[52] = tested on: UACC-257 melanoma
[53] = tested on: OVCAR-4 ovarian
[54] = tested on: SK-MEL-5 melanoma
[55] = tested on: CAKI-1 renal
[56] = tested on: MALME-3M melanoma
[57] = tested on: SNB-19 CNS
[58] = tested on: HL-60(TB) leukemia

Measured: TGI

CSc1ncnc2c1cnn2Cc1cn(CCCCO)nn1
> 100 µM: [1] | [2] | [3] | [4] | [5] | [6] | [7] | [8] | [9] | [10] | [11] | [12] | [13] | [14] | [15] | [16] | [17] | [18] | [19] | [20] | [21] | [22] | [23] | [24] | [25] | [26] | [27] | [28] | [29] | [30] | [31] | [32] | [33] | [34] | [35] | [36] | [37] | [38] | [39] | [40] | [41] | [42] | [43] | [44] | [45] | [46] | [47] | [48] | [49] | [50] | [51] | [52] | [53] | [54] | [55] | [56] | [57]

COC(=O)c1cc(C)ccc1/C=C1\Cc2cccc(C)c2C1=O
61.8 µM: [31]
96 µM: [48]
62.2 µM: [13]
> 100 µM: [1] | [2] | [3] | [4] | [6] | [7] | [8] | [9] | [10] | [11] | [15] | [17] | [18] | [58] | [20] | [21] | [22] | [23] | [24] | [25] | [26] | [27] | [28] | [29] | [30] | [32] | [33] | [34] | [36] | [37] | [38] | [39] | [41] | [42] | [43] | [44] | [45] | [46] | [47] | [49] | [51] | [52] | [53] | [55] | [57]
58.7 µM: [50]
81.4 µM: [19]
25.9 µM: [54]
96.9 µM: [56]
66.2 µM: [35]
